In patent publication US20160243021A1, “Collagen-Boosting Compositions And Methods” (ELC MANAGEMENT LLC, priority 2015, published 2016):

How the values were obtained:
Format in all cases: cell-based, human
adult NHDFs [1] = experiment: Collagen-boosting assay, Example 4 (PIP ELISA; Mitostime in combination with Argireline); conditions: 10 ng/ml; 3 days
Protocol: Mitostime also was tested in combination with Argireline for efficacy in boosting collagen synthesis in NHDFs. TGFβ, at 10 ng/ml, was run as a positive control. Adult NHDFs were seeded and grown to confluence in a 96 well plate prior to treatment with Mitostime at 0.3%/Argireline peptide at 0.00005%; Mitostime at 0.15%/Argireline peptide at 0.000025%; and Mitostime at 0.075%/Argireline peptide at 0.0000125%. The plate was incubated for 3 days at 37° C./5% CO2. Supernatants were harvested and stored at −80° C. in siliconized tubes until the PIP ELISA was performed as outlined in Example 1. For this assay, supernatants were diluted 1:200. […] TGFβ increased collagen synthesis by 23%.

adult NHDFs [2] = experiment: Collagen-boosting assay, Example 4 (PIP ELISA; Mitostime); conditions: 10 ng/ml; 3 days
Protocol: Mitostime was tested for its collagen-boosting efficacy in NHDFs. TGFβ, at 10 ng/ml, was run as a positive control. Adult NHDFs were seeded and grown to confluence in a 96 well plate prior to treatment with mitostime 0.075%, 0.15% and 0.3% (w/v). The plate was incubated for 3 days at 37° C./5% CO2. Supernatants were harvested and stored at −80° C. in siliconized tubes until the PIP ELISA was performed as outlined in Example 1. For this assay, supernatants were diluted 1:200. […] TGFβ increased collagen synthesis by 27% (p=0.0001).

adult NHDFs [3] = experiment: Collagen-boosting assay, Example 3 (PIP ELISA; Argireline); conditions: 3 days
Protocol: In this assay, Argireline was tested for its efficacy in boosting collagen synthesis in NHDFs. TGFβ was run as a positive control.
Adult NHDFs were seeded and grown to confluence in a 96 well plate prior to treatment with Argireline at concentrations of 0.001, 0.01, 0.1 and 1% (v/v) in media (negative control) or with 10 ng/ml TGFβ (positive control) in media.
The plate was incubated for 3 days at 37° C./5% CO2. Supernatants were harvested and stored at −80° C. in siliconized tubes until the PIP ELISA was performed, as described in Example 1. For this assay, supernatants were diluted 1:40.

adult NHDF cells = experiment: Collagen-boosting assay, Example 5 (PIP ELISA; NXP-75); conditions: 10 ng/ml; 3 days
Protocol: In this assay, NXP-75 was tested for its efficacy in boosting collagen synthesis in NHDFs. TGFβ (10 ng/ml) was run as a positive control. Adult NHDF cells were seeded and grown to confluence in a 96 well flat bottom plate prior to treatment. NXP-75 powder was prepared at the following dilutions: 0.0001, 0.001, 0.01 and 0.1% (w/v) in media (negative control). The plate was incubated for 3 days at 37° C./5% CO2. Supernatants were harvested and stored at −80° C. in siliconized tubes until the PIP ELISA was performed. For this assay, supernatants were diluted 1:200. […] TGFβ enhanced collagen synthesis by 20% compared with media.

Substance	increase in collagen synthesis (adult NHDFs [1])	increase in collagen synthesis compared with media (adult NHDFs [2])	increase in collagen levels (adult NHDFs [3]; 10 ng/ml)	boost of collagen synthesis compared with media (adult NHDF cells)	increase in collagen synthesis compared with media (adult NHDFs [3]; 0.01%)	increase in collagen synthesis compared with media (adult NHDFs [3]; 0.1% (v/v))
TGFβ	23%	27%	147%	20%		
acetyl hexapeptide-3 [Argireline]					29%	76%
